From patent publication US20100160370A1, “METHOD OF TREATMENT AND PHARMACEUTICAL COMPOSITIONS” (Gilead Sciences, Inc., priority 2008, published 2010)

Assays:
Assay type in all cases: in vivo
bleomycin rat model = experiment: Bleomycin rat model: white blood cell counts in lung lavage; settings: for Lymphocyte Count (Average) / Macrophage Count (Average) / Neutrophil Count (Average) / Total Cell Count (Average): oral gavage twice a day, lung lavage
Source text: The bleomycin rat model was used in this study to evaluate (R)-N-((2S,3S)-2-(fluoromethyl)-2-hydroxy-5-oxo-tetrahydrofuran-3-yl)-5-isopropyl-3-(isoquinolin-1-yl)-4,5-dihydroisoxazole-5-carboxamide as a possible therapeutic drug for the treatment of idiopathic pulmonary fibrosis (IPF) and other fibrotic lung diseases. The bleomycin animal model of IPF is an art-recognized model for evaluating potentially therapeutic drugs for the treatment of IPF (see, e.g., F. Chua et al., Pulmonary Fibrosis, Searching for Model Answers, Am. J. Respir. Cell. Mol. Biol., 33:9-13 (2005); A. Moeller et al., The bleomycin animal model: A useful tool to investigate treatment options for idiopathic pulmonary fibrosis, International Journal of Biochemistry and Cell Biology, 40: 362-382 (2008)). In this Example, (R)-N-((2S,3S)-2-(fluoromethyl)-2-hydroxy-5-oxo-tetrahydrofuran-3-yl)-5-isopropyl-3-(isoquinolin-1-yl)-4,5-dihydroisoxazole-5-carboxamide is referred to as the “test compound” for ease of reference. […] The abbreviations used in Table 1 are Bleo (bleomycin), IT (intratracheal), mg/kg (milligram per kilogram), N (number) and n/a (not applicable). [table] The rats receiving the test compound were gavaged twice a day from day zero (the day of bleomycin administration) through the day prior to necropsy. On days 14 and 28 the designated rats were euthanized with a pentobarbital-based solution, the chest cavity was opened and examined for gross pathology. The right lung was removed, canulated, and lavaged for determination of white blood cell counts. The lavaged tissue was flash frozen and analyzed for collagen content by measuring the amount of collagen. The left lung was fixed for histopathology. Homogenates from the lungs were analyzed for cytokines. Intratracheal administration of bleomycin induces a two-stage response in the lungs of rats. The first stage is an inflammatory response which peaks at about 14 days after bleomycin administration, and the second stage is a fibrotic response that is apparent by 28 days after bleomycin administration. The inflammation markers that were measured in this study were the influx of leukocytes (neutrophils, macrophages and lymphocytes) into the airways, and the induction of the cytokines MCP-1 and MCP-3 (where MCP stands for Monocyte Chemoattractant Protein). Tables 2, 3, 4 and 5 show the total cell count, neutrophil count, macrophage count and the lymphocyte count, respectively, from the treated rats at 14 days and 28 days (Values for cell numbers are ×10^6). The abbreviation SEM stands for Standard Error of the Mean. In Tables 2 thru 8 the t-test was an unpaired, two-tailed, t-test performed using a GraphPad Prism version 5.01 for Windows (GraphPad Software, San Diego, Calif. USA).

MCP-1 = experiment: Bleomycin rat model: MCP-1 level in bronchoalveolar lavage fluid (Luminex/Procarta cytokine assay); settings: for MCP-1 concentration (Average): oral gavage twice a day, BAL
Source text: (§1) The bleomycin rat model was used in this study to evaluate (R)-N-((2S,3S)-2-(fluoromethyl)-2-hydroxy-5-oxo-tetrahydrofuran-3-yl)-5-isopropyl-3-(isoquinolin-1-yl)-4,5-dihydroisoxazole-5-carboxamide as a possible therapeutic drug for the treatment of idiopathic pulmonary fibrosis (IPF) and other fibrotic lung diseases. The bleomycin animal model of IPF is an art-recognized model for evaluating potentially therapeutic drugs for the treatment of IPF (see, e.g., F. Chua et al., Pulmonary Fibrosis, Searching for Model Answers, Am. J. Respir. Cell. Mol. Biol., 33:9-13 (2005); A. Moeller et al., The bleomycin animal model: A useful tool to investigate treatment options for idiopathic pulmonary fibrosis, International Journal of Biochemistry and Cell Biology, 40: 362-382 (2008)).
(§2) The rats receiving the test compound were gavaged twice a day from day zero (the day of bleomycin administration) through the day prior to necropsy. On days 14 and 28 the designated rats were euthanized with a pentobarbital-based solution, the chest cavity was opened and examined for gross pathology. The right lung was removed, canulated, and lavaged for determination of white blood cell counts. The lavaged tissue was flash frozen and analyzed for collagen content by measuring the amount of collagen. The left lung was fixed for histopathology. Homogenates from the lungs were analyzed for cytokines.
(§3) Intratracheal administration of bleomycin induces a two-stage response in the lungs of rats. The first stage is an inflammatory response which peaks at about 14 days after bleomycin administration, and the second stage is a fibrotic response that is apparent by 28 days after bleomycin administration. The inflammation markers that were measured in this study were the influx of leukocytes (neutrophils, macrophages and lymphocytes) into the airways, and the induction of the cytokines MCP-1 and MCP-3 (where MCP stands for Monocyte Chemoattractant Protein). Tables 2, 3, 4 and 5 show the total cell count, neutrophil count, macrophage count and the lymphocyte count, respectively, from the treated rats at 14 days and 28 days (Values for cell numbers are ×10^6). The abbreviation SEM stands for Standard Error of the Mean. In Tables 2 thru 8 the t-test was an unpaired, two-tailed, t-test performed using a GraphPad Prism version 5.01 for Windows (GraphPad Software, San Diego, Calif. USA).
(§4) Additionally, MCP-1 and MCP-3 levels in the rat Bronchoalveolar Lavage Fluid (BAL) were measured using Luminex xMap Technology CS1000 (Austin, Tex.) and a Procarta Cytokine Assay Kit (rat 15-plex) manufactured by Panomics, Inc. (Fremont, Calif.) that included analytes for: IL-1α, IL-1β, IL-6, TNFα, KC, MCP-1, MCP-3, MIP-1α, RANTES, VEGF, TGFb, IL-4, IL-10, IFNg, and GM-CSF. Three replicate assay wells (n=3) were analyzed for each experimental sample following the manufacturer's instructions. Quantitation of each analyte was determined against standard curves using MiraiBio's (Alameda, Calif.) Masterplex QT v 3.0 software. For all samples, background signals in the absence of BAL were determined and subtracted from signals obtained in the presence of BAL to obtain the net signal. Statistical significance of biological studies was tested with a two-tailed Student t-test. Tables 6 and 7 show the concentrations of cytokines MCP-1 and MCP-3, respectively, in the airways of the treated rats, expressed in pg/mL.

MCP-3 = experiment: Bleomycin rat model: MCP-3 level in bronchoalveolar lavage fluid (Luminex/Procarta cytokine assay); settings: for MCP-3 concentration (Average): oral gavage twice a day, BAL
Source text: as §1, §2, §3, §4

collagen = experiment: Bleomycin rat model: lung collagen deposition (pepsin digest, SDS-PAGE densitometry); set-up: Collagen Response (Average collagen concentration): unit not given here; settings: for Collagen Response (Average collagen concentration): oral gavage twice a day, 28 day, lung tissue
Source text: The bleomycin rat model was used in this study to evaluate (R)-N-((2S,3S)-2-(fluoromethyl)-2-hydroxy-5-oxo-tetrahydrofuran-3-yl)-5-isopropyl-3-(isoquinolin-1-yl)-4,5-dihydroisoxazole-5-carboxamide as a possible therapeutic drug for the treatment of idiopathic pulmonary fibrosis (IPF) and other fibrotic lung diseases. The bleomycin animal model of IPF is an art-recognized model for evaluating potentially therapeutic drugs for the treatment of IPF (see, e.g., F. Chua et al., Pulmonary Fibrosis, Searching for Model Answers, Am. J. Respir. Cell. Mol. Biol., 33:9-13 (2005); A. Moeller et al., The bleomycin animal model: A useful tool to investigate treatment options for idiopathic pulmonary fibrosis, International Journal of Biochemistry and Cell Biology, 40: 362-382 (2008)). The rats receiving the test compound were gavaged twice a day from day zero (the day of bleomycin administration) through the day prior to necropsy. On days 14 and 28 the designated rats were euthanized with a pentobarbital-based solution, the chest cavity was opened and examined for gross pathology. The right lung was removed, canulated, and lavaged for determination of white blood cell counts. The lavaged tissue was flash frozen and analyzed for collagen content by measuring the amount of collagen. The left lung was fixed for histopathology. Homogenates from the lungs were analyzed for cytokines. […] Gels were then stained with Coomassie Blue and stained bands migrating coincident with type I collagen standards were compared by densitometry to the Coomassie stained collagen standards in order to quantitate collagen content. Under the reducing conditions employed in the analysis, the quantitated lung sample gel bands represented the alpha 1 and 2 chains of type I collagen and the alpha 1 chain of type Ill collagen. Blots were scanned with a BioRad GS-800 Scanner and their density was quantitated using “Quantity One” computer software from BioRad. Results were averaged for each treatment group and expressed as micrograms of collagen/mg of lung tissue.

[1] = Bleomycin IT 3.5 mg/kg + 10 mg/Kg test compound, 14 day
[2] = Bleomycin IT 3.5 mg/kg + 10 mg/Kg test compound, 28 day
[3] = Bleomycin IT 3.5 mg/kg + 30 mg/Kg test compound, 14 day
[4] = Bleomycin IT 3.5 mg/kg + 30 mg/Kg test compound, 28 day
[5] = orally administered, bleomycin-treated rats, result in words
[6] = bleomycin-treated rats, result in words

CC(C)[C@@]1(C(=O)N[C@H]2CC(=O)O[C@]2(O)CF)CC(c2nccc3ccccc23)=NO1 [Test Compound, (R)-N-((2S,3S)-2-(fluoromethyl)-2-hydroxy-5-oxo-tetrahydrofuran-3-yl)-5-isopropyl-3-(isoquinolin-1-yl)-4,5-dihydroisoxazole-5-carboxamide]
Lymphocyte Count (Average) (bleomycin rat model; [1]): 0.002 ×10^6 | Macrophage Count (Average) (bleomycin rat model; [1]): 0.415 ×10^6 | Neutrophil Count (Average) (bleomycin rat model; [1]): 0.006 ×10^6 | Total Cell Count (Average) (bleomycin rat model; [1]): 1.988 ×10^6 | Lymphocyte Count (Average) (bleomycin rat model; [2]): 0.007 ×10^6 | Macrophage Count (Average) (bleomycin rat model; [2]): 0.442 ×10^6 | Neutrophil Count (Average) (bleomycin rat model; [2]): 0.012 ×10^6 | Total Cell Count (Average) (bleomycin rat model; [2]): 2.276 ×10^6 | Lymphocyte Count (Average) (bleomycin rat model; [3]): 0.003 ×10^6 | Macrophage Count (Average) (bleomycin rat model; [3]): 0.285 ×10^6 | Neutrophil Count (Average) (bleomycin rat model; [3]): 0.005 ×10^6 | Total Cell Count (Average) (bleomycin rat model; [3]): 1.482 ×10^6 | Lymphocyte Count (Average) (bleomycin rat model; [4]): 0.004 ×10^6 | Macrophage Count (Average) (bleomycin rat model; [4]): 0.476 ×10^6 | Neutrophil Count (Average) (bleomycin rat model; [4]): 0.008 ×10^6 | Total Cell Count (Average) (bleomycin rat model; [4]): 2.207 ×10^6 | influx of lymphocytes into the airways (bleomycin rat model; [5]): inhibited the influx | influx of macrophages into the airways (bleomycin rat model; [5]): inhibited the influx | influx of neutrophils into the airways (bleomycin rat model; [5]): inhibited the influx | MCP-1 concentration (Average) (MCP-1; [1]): 66.122 pg/mL | MCP-1 concentration (Average) (MCP-1; [2]): 12.800 pg/mL | MCP-1 concentration (Average) (MCP-1; [3]): 13.838 pg/mL | MCP-1 concentration (Average) (MCP-1; [4]): 11.844 pg/mL | production of MCP-1 in the lungs (MCP-1; [6]): inhibited the production | MCP-3 concentration (Average) (MCP-3; [1]): 37.987 pg/mL | MCP-3 concentration (Average) (MCP-3; [2]): 7.075 pg/mL | MCP-3 concentration (Average) (MCP-3; [3]): 5.668 pg/mL | MCP-3 concentration (Average) (MCP-3; [4]): 6.497 pg/mL | production of MCP-3 in the lungs (MCP-3; [6]): inhibited the production | Collagen Response (Average collagen concentration) (collagen; Bleomycin IT 3.5 mg/kg + 10 mg/Kg test compound): 2.353 | Collagen Response (Average collagen concentration) (collagen; Bleomycin IT 3.5 mg/kg + 30 mg/Kg test compound): 3.891 | deposition of collagen during the fibrotic phase of the bleomycin response (collagen; [5]): inhibited the deposition of collagen
